Measured values taken from PubChem BioAssay AID624167 (Sanford-Burnham Center for Chemical Genomics, 2012).
Calls of active or inactive are those of the source.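 Rule for the calls: active = mean IC50 for reducing PEG3 promoter reporter signal at or below a set limit, with IC50 above the limit in both counter screens; inactive = the rest, including counter screen hits.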

Assays:
Rat fibroblasts (CREF) = experiment: inhibition of PEG-3 promoter-driven reporter – cell-based, HeLa, luciferase, CREF/GAPDH counter-screen panel, dose response (AID 624167); details: CREF/GAPDH counter-screens
PEG-3 [1] = experiment: as above; details: HeLa PEG-Prom luciferase reporter, overnight, CREF/GAPDH counter-screens
PEG-3 [2] = target: PEG-3 (UniProt Q6IN02); experiment: as above; details: HeLa PEG-Prom luciferase reporter, overnight, CREF/GAPDH counter-screens, mean of runs
[3] = as above; details: CREF/GAPDH counter-screens; GAPDH; mean of runs
GAPDH = experiment: as above; details: CREF/GAPDH counter-screens
[4] = run 1, dose range 1, individual replicate IC50 per panel
[5] = run 2, dose range 1, individual replicate IC50 per panel

Chain of PEG-3 (UniProt Q6IN02) (Q6IN02 whole entry, looked up): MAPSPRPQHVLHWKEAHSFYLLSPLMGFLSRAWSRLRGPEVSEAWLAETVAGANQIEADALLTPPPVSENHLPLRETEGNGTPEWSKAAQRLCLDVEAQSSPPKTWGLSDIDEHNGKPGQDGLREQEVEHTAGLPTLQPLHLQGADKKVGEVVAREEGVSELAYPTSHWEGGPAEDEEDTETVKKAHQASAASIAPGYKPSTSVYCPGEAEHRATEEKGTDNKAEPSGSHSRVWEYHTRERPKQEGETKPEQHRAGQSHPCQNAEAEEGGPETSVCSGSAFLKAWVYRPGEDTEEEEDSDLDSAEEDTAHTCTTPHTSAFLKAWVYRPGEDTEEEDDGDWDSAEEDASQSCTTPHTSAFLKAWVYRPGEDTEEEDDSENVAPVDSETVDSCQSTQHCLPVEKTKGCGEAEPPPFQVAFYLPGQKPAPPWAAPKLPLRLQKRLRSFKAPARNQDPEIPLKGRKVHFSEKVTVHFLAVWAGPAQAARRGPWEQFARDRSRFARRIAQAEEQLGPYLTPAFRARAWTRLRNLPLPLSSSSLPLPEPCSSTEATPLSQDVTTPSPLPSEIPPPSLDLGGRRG

Row | SMILES | IC50 (Rat fibroblasts (CREF); mean of runs) | IC50 (Rat fibroblasts (CREF); [4]) [µM] | IC50 (Rat fibroblasts (CREF); [5]) [µM] | IC50 (PEG-3 [1]; [4]) [µM] | IC50 (PEG-3 [1]; [5]) [µM] | IC50 (PEG-3 [2]) | IC50 [3] | IC50 (GAPDH; [4]) [µM] | IC50 (GAPDH; [5]) [µM]
1 | CCCCCCCn1c(=N)n(CC(=O)c2ccco2)c2ccccc21 | 30.7 µM | 29.2 | 32.1 | 0.395 | > 100 | inactive | inactive | 27 | 35
2 | CC1=NOC(=O)/C1=C\c1ccc(-c2ccccc2Br)o1 | 50 µM | 24.6 | 75.3 | 11.3 | 10.1 | 10.7 µM | 18.3 µM | 16.9 | 19.7
3 | CCc1ccn2cc(-c3ccc4c(c3)OCO4)nc2c1 | 50.4 µM (inactive) | 0.748 | > 100 | 1.97 | 12.4 | 7.2 µM | 6.32 µM | 3.75 | 8.89
4 | CC(C)(C)c1ccc(Oc2ccc(N)cc2)cc1 | 74.7 µM (inactive) | 74.7 | > 100 | 4.88 | 4.1 | 4.49 µM | 1.44 µM | 0.457 | 2.43
5 | O=C(O)c1ccc(N/N=C/c2ccc3nccnc3c2)cc1 | > 100 µM (inactive) | > 100 | > 100 | 1.26 | 1.36 | 1.31 µM | 1.38 µM | 1.36 | 1.41
6 | CC1=CC2/C=C(\C)CCC(O)C(O)/C=C/C(=O)C23C(=O)NC(CC(C)C)C3C1C (centres undefined) | 14.3 µM | 20.1 | 8.55 | 5.76 | 3.79 | 4.78 µM | 7.88 µM | 9.17 | 6.59
7 | COc1ccc(/C=C2/CCCC(CN(C)C)C2=O)cc1 (centres undefined) | 28.8 µM | 23.6 | 34 | 11.3 | 8.07 | 9.68 µM | inactive | 38.2 | 23.9
8 | C=C1CC2(OC1=O)c1ccccc1CCc1ccccc12 | 7.93 µM | 7.58 | 8.28 | 5.7 | 3.98 | 4.84 µM | 13.8 µM | 15.2 | 12.5
9 | CN(O)C(=S)c1ccccc1 | > 100 µM (inactive) | > 100 | > 100 | 10.3 | 42.5 | inactive | > 100 µM (inactive) | > 100 | > 100
10 | CC(C)CC1C(=O)N(Cc2cn(Cc3ccco3)nn2)CCS(=O)(=O)N1Cc1ccc(-c2ccc(F)cc2)cc1 (centres undefined) | 67.5 µM (inactive) | > 100 | 34.9 | 10.4 | 6.09 | 8.24 µM | inactive | > 100 | 47.1
11 | CCCC(=O)NC(c1ccc(Cl)cc1)c1ccc2cccnc2c1O (centres undefined) | > 100 µM (inactive) | > 100 | > 100 | 2.29 | 4.28 | 3.29 µM | inactive | 27.5 | 58.5
12 | C=CCn1c(C)cc(C(=O)COc2ccc(C)nc2[N+](=O)[O-])c1C | > 100 µM (inactive) | > 100 | > 100 | 1.55 | 1.26 | 1.4 µM | 24 µM | 8.8 | 39.1
13 | C(=N\Nc1ccc2ccccc2n1)/c1ccc2c(c1)OCCO2 | 51.2 µM (inactive) | 2.43 | > 100 | 5.86 | 8.13 | 6.99 µM | 3.75 µM | 6.78 | 0.719
14 | CN1C/C(=C/c2ccccc2[N+](=O)[O-])C(=O)/C(=C\c2ccccc2[N+](=O)[O-])C1 | 27.4 µM | 30 | 24.9 | 5.67 | 6.14 | 5.91 µM | inactive | > 100 | 79.4
15 | O=C(Nc1ccccc1)c1nc[nH]c1C(=O)NCCCCCCNC(=O)c1[nH]cnc1C(=O)Nc1ccccc1 | > 100 µM (inactive) | > 100 | > 100 | 2.4 | > 100 | inactive | inactive | > 100 | 16
16 | COc1ccc(Nc2ncnc3ccc(Br)cc23)c(OC)c1 | > 100 µM (inactive) | > 100 | > 100 | 0.293 | 0.246 | 0.27 µM | 0.974 µM | 0.864 | 1.08

Row | SMILES | IC50 (Rat fibroblasts (CREF); mean of runs) | IC50 (Rat fibroblasts (CREF); [4]) [µM] | IC50 (Rat fibroblasts (CREF); [5]) [µM] | IC50 (PEG-3 [1]; [4]) [µM] | IC50 (PEG-3 [1]; [5]) [µM] | IC50 (PEG-3 [2]) | IC50 [3] | IC50 (GAPDH; [4]) [µM] | IC50 (GAPDH; [5]) [µM]
17 | CCCC(=O)NC(c1ccc(C(C)C)cc1)c1ccc2cccnc2c1O (centres undefined) | > 100 µM (inactive) | > 100 | > 100 | 1.94 | 0.814 | 1.38 µM | inactive | 26.2 | 85.1
18 | Cc1cc(C(=O)Nc2cccc(C(=O)O)c2)oc1C | > 100 µM (inactive) | > 100 | > 100 | 6.77 | 11.2 | 9.01 µM | 11.3 µM | 6.56 | 16
19 | O=C(N/N=C/c1cc([N+](=O)[O-])ccc1O)c1ccc(COc2ccc3c(c2)CCC3)o1 | 76.8 µM (inactive) | > 100 | 53.7 | 7.48 | 10.9 | 9.2 µM | > 100 µM (inactive) | > 100 | > 100
20 | O=C(CCn1cnc(-c2ccccc2)c1-c1ccccc1)N/N=C/c1ccccc1O | 63.2 µM (inactive) | > 100 | 26.4 | 5.32 | 4.93 | 5.13 µM | inactive | 49.7 | > 100
21 | O=C(/C=C/c1ccc(Cl)c([N+](=O)[O-])c1)c1ccc(O)cc1 | 26.5 µM | 29.7 | 23.2 | 8.19 | 4.5 | 6.34 µM | 16.6 µM | 17.9 | 15.3
22 | CC(=O)c1cccc(-c2ccnc3c2CC(C(=O)Nc2cccc(NS(C)(=O)=O)c2)O3)c1 (centres undefined) | > 100 µM (inactive) | > 100 | > 100 | 6.56 | 4.65 | 5.6 µM | inactive | > 100 | 90.3
23 | O=C(COc1ccc2c(c1)CCC2)Nc1ccccn1 | 33.2 µM | 29.2 | 37.2 | 3.52 | 5.59 | 4.55 µM | 5.82 µM | 2.94 | 8.7
24 | COc1cc(CNCCCN2CCOCC2)cc(Br)c1OCc1ccc(Cl)cc1 | 14.4 µM | > 80 | 14.4 | 9.57 | 8.99 | 9.28 µM | 12.3 µM | 15.3 | 9.28
25 | COCCCNC(=O)c1ccc(Cn2c(=O)c3ccccc3n(Cc3ccccc3C#N)c2=O)cc1 | > 100 µM (inactive) | > 100 | > 100 | 4.1 | 4.27 | 4.18 µM | > 100 µM (inactive) | > 100 | > 100
26 | N=c1n(CC(=O)c2ccc([N+](=O)[O-])cc2)c2ccccc2n1Cc1ccc(Cl)cc1 | 27 µM | 26.4 | 27.6 | 9.65 | 8.76 | 9.2 µM | inactive | > 80 | 33.3
27 | CC(=O)c1ccc(-c2cnc3c(NC=O)cc(-c4ccccc4Oc4ccccc4)cn23)cc1 | 54.5 µM (inactive) | > 100 | 8.93 | 5.46 | 8.94 | 7.2 µM | inactive | 91.1 | > 100
28 | Nc1nonc1-n1nnc(C(=O)N/N=C/c2cc(Br)ccc2O)c1CNc1ccccc1 | 77.8 µM (inactive) | > 100 | 55.7 | 4.19 | 17.6 | 10.9 µM | inactive | 45.2 | 59.3
29 | CN(C(=O)COC(=O)/C=C/c1cccc([N+](=O)[O-])c1)C1CCS(=O)(=O)C1 (centres undefined) | > 100 µM (inactive) | > 100 | > 100 | 0.452 | 0.452 | 0.452 µM | > 100 µM (inactive) | > 100 | > 100
30 | COc1ccc2c(c1)c(=Cc1ccc(N(C)C)cc1)c1cc(-c3ccccc3)[n+](C)n12 | 26.9 µM | 24.8 | 29.1 | 3.17 | 1.37 | 2.27 µM | 7.04 µM | 6.61 | 7.46
31 | O=C(N/N=C\c1c(O)ccc2ccccc12)c1ccc(Cn2cccn2)o1 | > 100 µM (inactive) | > 100 | > 100 | 3.09 | 9.35 | 6.22 µM | > 100 µM (inactive) | > 100 | > 100
